The subject of assay [1] is A/Kanagawa/IC18141/2019, influenza A(H3N2) virus carrying polymerase acidic I38T substitution. In kind it is cell-based.
Assay [2] deals with mutant influenza A(H3N2) viruses encoding the polymerase acidic I38T substitution. As to conditions: human, in vivo.
Assay [3] deals with neuraminidase (NA) of A/Kanagawa/IC18141/2019 (Influenza A virus (H3N2), UniProt A0A193ACB1). The class given is biochemical.

The values that follow come from article PMC6810216, “Human-to-Human Transmission of Influenza A(H3N2) Virus with Reduced Susceptibility to Baloxavir, Japan, February 2019” (Emerging Infectious Diseases, 2019).

The structures appear in SMILES notation.

What is called IC50 is the point on the concentration scale where inhibition reaches its midpoint. For the compound `O=C1c2c(O)c(=O)ccn2N([C@@H]2c3ccccc3SCc3c2ccc(F)c3F)[C@@H]2COCCN12` [Baloxavir, baloxavir acid], in assay [1], the IC50 amounted to 236 nM and the “fold higher IC50 value compared with the median IC50 of A(H3N2) viruses of the 2018–19 season” value is 186 fold. The “time to fever resolution after administration” value in assay [2] is on record as “within a half day”.
In the case of `CCC(CC)[C@H](NC(C)=O)[C@@H]1[C@H](O)[C@@H](C(=O)O)C[C@H]1N=C(N)N` [Peramivir, peramivir], in assay [3], the IC50 came to 0.18 nM and the “NA inhibitor susceptibility by WHO criteria (fold change in IC50 vs median of same-season isolates)” value was 0.18 (NI) (key: NI: normal (<10-fold increase); reduced (10–100-fold increase); highly reduced (>100-fold increase)).
